According to patent US20160115189A1, “PARASITICIDAL COMPOUNDS, METHODS, AND FORMULATIONS” (ELI LILLY AND COMPANY, priority 2013, published 2016):

System: adult brown tick (Rhipicephalus sanguineus)
Experiment: Assay 5: adult brown tick infestations on dogs
Assay type: in vivo, Rhipicephalus sanguineus on beagle dogs
Conditions: 10 mg/kg topical spot-on
Procedure: The total number of live parasites present on each dog is determined for each interval, and this number is transformed using the natural logarithm transformation plus one (Ln count+1); addition of one to each count served to adjust for counts that are zero. Geometric mean (GM) group tick and flea counts are obtained via back-transformation of group mean transformed counts and subtracting one. The negative control group is used for comparison to treated groups for the calculation of percent efficacy (% reduction in live parasite counts). GM percent efficacy of treatments is calculated using the following formula: […]
The therapeutic (knockdown) and residual efficacy of the Example 1-4 compounds, when administered via topical spot-on at 10 mg/kg, is evaluated against adult brown tick (Rhipicephalus sanguine us) infestations on dogs. Twenty (20) beagle dogs are allocated to either an untreated, negative control group or one of four treated groups (n=4 dogs per group). Dogs are infested with approximately 50 unfed, adult R. sanguineus ticks on Days −1, 5, 12, 19 and 28. On Day 0, dogs are treated with Example 1-4 compound formulations (each, 50 mg/ml of technical active dissolved in a vehicle solution of propylene carbonate, benzyl alcohol, and isopropyl myristate), applied via topical spot-on in a volume so as to achieve a point dose of 10 mg/kg. Tick counts and classification are conducted on Days 2, 7, 14, 21 and 30. GM percent efficacy of treatments against ticks is calculated using the formula in Assay 3.

CC[C@H]1CCC[C@H](NC(=O)c2ccncc2)[C@@H](C)C(=O)C2=C[C@@H]3[C@@H](C=C[C@@H]4C[C@@H](O[C@@H]5O[C@@H](C)[C@H](OC)C(OC)[C@H]5OC)C[C@@H]34)[C@@H]2CC(=O)O1 (stereo partly drawn) [Example 3, N-((2R,3aS,5aR,5bS, 9S,13S,14R,16aS, 16bR)-9-ethyl-14-methyl-7,15-dioxo-2-(((2R,3R,5S,6S)-3,4,5-trimethoxy-6-methyltetrahydro-2H-pyran-2-yl)oxy)-2,3,3a,5a,5b,6,7,9,10,11,12,13,14, 15,16a,16b-hexadecahydro-1H-as-indaceno[3,2-d][1]oxacyclododecin-13-yl)isonicolina-mide]
GM percent efficacy (Day 2, R. sanguineus): (62.52) | Geometric Mean Group Live Tick Counts (Day 2, R. sanguineus): 11.80 | GM percent efficacy (Day 7, R. sanguineus): (85.01) | Geometric Mean Group Live Tick Counts (Day 7, R. sanguineus): 3.23 | GM percent efficacy (Day 14, R. sanguineus): (76.50) | Geometric Mean Group Live Tick Counts (Day 14, R. sanguineus): 5.12 | GM percent efficacy (Day 21, R. sanguineus): (82.44) | Geometric Mean Group Live Tick Counts (Day 21, R. sanguineus): 5.90 | GM percent efficacy (Day 30, R. sanguineus): (41.02) | Geometric Mean Group Live Tick Counts (Day 30, R. sanguineus): 15.47

CC[C@H]1CCC[C@H](NC(=O)c2cc(C)on2)[C@@H](C)C(=O)C2=C[C@@H]3[C@@H](C=C[C@@H]4C[C@@H](O[C@@H]5O[C@@H](C)[C@H](OC)C(OC)[C@H]5OC)C[C@@H]34)[C@@H]2CC(=O)O1 (stereo partly drawn) [Example 4, N-((2R,3aS,5aR,5bS, 9S,13S,14R,16aS, 16bR)-9-ethyl-14-methyl-7,15-dioxo-2-(((2R,3R,5S,6S)-3,4,5-trimethoxy-6-methyltetrahydro-2H-pyran-2-yl)oxy)-2,3,3a,5a,5b,6,7,9, 10,11,12,13,14,15, 16a,16b-hexadecahydro-1H-as-indaceno[3,2-d][1]oxacyclododecin-13-yl)-5-methyl-isoxazole-3-carboxamide]
GM percent efficacy (Day 2, R. sanguineus): (67.71) | Geometric Mean Group Live Tick Counts (Day 2, R. sanguineus): 10.17 | GM percent efficacy (Day 7, R. sanguineus): (96.60) | Geometric Mean Group Live Tick Counts (Day 7, R. sanguineus): 0.73 | GM percent efficacy (Day 14, R. sanguineus): (82.25) | Geometric Mean Group Live Tick Counts (Day 14, R. sanguineus): 3.86 | GM percent efficacy (Day 21, R. sanguineus): (81.13) | Geometric Mean Group Live Tick Counts (Day 21, R. sanguineus): 6.34 | GM percent efficacy (Day 30, R. sanguineus): (26.88) | Geometric Mean Group Live Tick Counts (Day 30, R. sanguineus): 19.17

CC[C@H]1CCC[C@H](NC(=O)c2ccncn2)[C@@H](C)C(=O)C2=C[C@@H]3[C@@H](C=C[C@@H]4C[C@@H](O[C@@H]5O[C@@H](C)[C@H](OC)C(OC)[C@H]5OC)C[C@@H]34)[C@@H]2CC(=O)O1 (stereo partly drawn) [Example 2, N-((2R,3aS,5aR,5bS,9S,14R,16aS,16bR)-9-ethyl-14-methyl-7,15-dioxo-2-(((2R,3R,5S,6S)-3,4,5-trimethoxy-6-methyltetrahydro-2H-pyran-2-yl)oxy)-2,3,3a,5a,5 b,6,7,9,10,11,12,13,14,15,16a,16b-hexadecahydro-1H-as-indaceno[3,2-d][1]oxacyclododecin-13-yl)pyrimidine-4-carboxamide]
GM percent efficacy (Day 2, R. sanguineus): (53.80) | Geometric Mean Group Live Tick Counts (Day 2, R. sanguineus): 14.55 | GM percent efficacy (Day 7, R. sanguineus): (99.12) | Geometric Mean Group Live Tick Counts (Day 7, R. sanguineus): 0.19 | GM percent efficacy (Day 14, R. sanguineus): (73.29) | Geometric Mean Group Live Tick Counts (Day 14, R. sanguineus): 5.82 | GM percent efficacy (Day 21, R. sanguineus): (76.46) | Geometric Mean Group Live Tick Counts (Day 21, R. sanguineus): 7.91 | GM percent efficacy (Day 30, R. sanguineus): (33.99) | Geometric Mean Group Live Tick Counts (Day 30, R. sanguineus): 17.31
